From patent US20250074907A1, “INHIBITORS OF SARS-COV-2” (THE TEXAS A&M UNIVERSITY SYSTEM, priority 2021, published 2025)

target: main protease (Mpro) of SARS-CoV-2 (Severe acute respiratory syndrome coronavirus 2 (2019-nCoV) (SARS-CoV-2), UniProt P0DTD1); test: Enzyme IC50 of SARS-CoV-2 inhibitors; type: biochemical; details: Table 1, Example SARS-COV-2 inhibitors

| SMILES | IC50 |
| --- | --- |
| Cc1cncc(-c2nnc3n2CCN(C(c2ccccc2)c2ccccc2)C3)c1 [PKJ-585] | 5.8 µM |

same assay, conditions: Table 2, List of compounds

| SMILES | IC50 |
| --- | --- |
| Cc1cncc(C(=O)N2CCC(=C3c4ccccc4C[S+]([O-])c4ccccc43)CC2)c1 (centres unmarked) [NZ- 826, (5-methyl-3-pyridyl)-[4-(5-oxo-6H-benzo[c][1]benzothiepin-11-ylidene)-1-piperidyl]methanone] | 0.06 to 0.07 µM |
| Cc1cncc(C(=O)N2CCC(=C3c4ccccc4CS(=N)(=O)c4ccccc43)CC2)c1 (centres unmarked) [NZ- 827, [4-(5-imino-5-oxo-6H-benzo[c][1]benzothiepin-11-ylidene)-1-piperidyl]-(5-methyl-3-pyridyl)methanone] | 0.057 µM |
| O=C(c1cncc2cc[nH]c12)N1CCC(=C2c3ccccc3CSc3ccccc32)CC1 [NZ- 828, [4-(6H-benzo[c][1]benzothiepin-11-ylidene)-1-piperidyl]-(1H-pyrrolo[3,2-c]pyridin-7-yl)methanone] | 0.021 to 0.033 µM |
| O=C(c1cncc2cc[nH]c12)N1CCC(=C2c3ccccc3C[S+]([O-])c3ccccc32)CC1 (centres unmarked) [NZ- 829, [4-(5-oxo-6H-benzo[c][1]benzothiepin-11-ylidene)-1-piperidyl]-(1H-pyrrolo[3,2-c]pyridin-7-yl)methanone] | 0.015 to 0.031 µM |
| N=S1(=O)Cc2ccccc2C(=C2CCN(C(=O)c3cncc4cc[nH]c34)CC2)c2ccccc21 (centres unmarked) [NZ- 830, [4-(5-imino-5-oxo-6H-benzo[c][1]benzothiepin-11-ylidene)-1-piperidyl]-(1H-pyrrolo [3,2-c]pyridin-7-yl)methanone] | 0.032 to 0.039 µM |
| Cc1cncc(C(=O)N2CCN(C3c4ccccc4CS(=O)(=O)c4ccc(F)cc43)CC2)c1 (centres unmarked) [NZ- 831, [4-(2-fluoro-5,5-dioxo-6,11-dihydrobenzo[c][1]benzothiepin-11-yl)piperazin-1-yl]-(5-methyl-3-pyridyl)methanone] | 0.045 µM |
| O=C(c1cncc2cc[nH]c12)N1CCN(C2c3ccccc3CS(=O)(=O)c3ccc(F)cc32)CC1 (centres unmarked) [NZ- 832, [4-(2-fluoro-5,5-dioxo-6,11-dihydrobenzo[c][1]benzothiepin-11-yl)piperazin-1-yl]-(1H-pyrrolo[3,2-c]pyridin-7-yl)methanone] | 0.018 µM |
| Cc1cncc(C(=O)N2CCN(C3c4cc(F)ccc4CS(=O)(=O)c4ccccc43)CC2)c1 (centres unmarked) [NZ- 833, [4-(9-fluoro-5,5-dioxo-6,11-dihydrobenzo[c][1]benzothiepin-11-yl)piperazin-1-yl]-(5-methyl-3-pyridyl)methanone] | 0.066 to 0.13 µM |
| O=C(c1cncc2cc[nH]c12)N1CCN(C2c3cc(F)ccc3CS(=O)(=O)c3ccccc32)CC1 (centres unmarked) [NZ- 834, [4-(9-fluoro-5,5-dioxo-6,11-dihydrobenzo[c][1]benzothiepin-11-yl)piperazin-1-yl]-(1H-pyrrolo[3,2-c]pyridin-7-yl)methanone] | 0.014 to 0.047 µM |
| Cc1cncc(C(=O)N2CCC(=C3c4ccccc4CC(=O)c4sccc43)CC2)c1 [NZ- 835, 2-[1-(5-methylpyridine-3-carbonyl)-4-piperidylidene]-6-thiatricyclo[8.4.0.03,7]tetradeca-1(10),3(7),4,11,13-pentaen-8-one] | 0.027 to 0.048 µM |
| O=C1Cc2ccccc2C(=C2CCN(C(=O)c3cncc4cc[nH]c34)CC2)c2ccsc21 [NZ- 836] | 0.009 to 0.02 µM |
| O=C(c1cncc2cc[nH]c12)N1CCC(=C2c3ccccc3C3OC3c3ccccc32)CC1 (centres unmarked) [NZ- 838] | 0.091 µM |
| O=C1Cc2ccccc2C(=C2CCN(C(=O)c3cncc4cc[nH]c34)CC2)c2ccccc21 [NZ- 839] | 0.018 µM |
